In one experiment the target is T1, TYK2-JH2 (Homo sapiens, UniProt P29597).
T1 construct: TYK JH2 enzyme mix (ChemPartnec CP20210818A-BV); purchased ChemPartner CP20210818A-BV
Put plainly: TYK2-JH2 HTRF binding assay (ligand efficiency). The settings on record: calculated from IC50 of the TYK-JH2 binding assay (Equation 1). The protocol: The following example describes the TYK2-JH2 HTRF binding assay used to determine the ligand efficiency of the TYK2 inhibitors.
To calculate ligand efficiency, Equation 1 is applied:
[formula] in which IC50 comes from the binding assay used to determine compound potency.
TYK JH2 enzyme mix (ChemPartnec CP20210818A-BV), tracer (ChemPartnec CP-0029472-051) and mAb Anti-6HIS Tb cryptate Gold (Cisbio: Cat No. 61H12TLA) mix were prepared in assay buffer (10 mM MgCl2, 20 mM HEPES pH 7.5, 0.01% Triton X-100, 1 mM DTT). Compounds diluted in DMSO (Final Concentrations 0.1 to 0.000005 [μM]) and enzyme mix (0.5 nM Final Concentration) were added to 384 well plates, briefly centrifuged and incubated at room temperature for 10 minutes. After incubation, tracer mix (Tracer-35 nM final concentration); (Mab Anti-6HIS Tb cryptate Gold-0.5× final)) was added, briefly centrifuged then incubate at room temperature 60 minutes. After incubation, plates were read by Envision TR-FRET (Ex340/Em495/520) protocol (PerkinElmer-Envision 2104 multilabel plate reader).

The next experiment has as its system IL-12/pSTAT4. Description: IL-12 induced pSTAT4 assay in NK-92 cells. The experiment is classed as cell-based. To be noted: Homo sapiens, NK92, IL-12 stimulation, read-out: Cellular potency (IL-12/pSTAT4). The method, then: The following example describes the IL-12 induced pSTAT4 assay used to determine the cellular potency (IL-12/pSTAT4) of the TYK2 inhibitors.
NK-92 cells (human natural killer lymphoma cell line) were cultured in MEM α, nucleosides (Life Technologies, 22571020) 12.5% heat inactivated FBS (Dominique Dutscher, S1810), 12.5% heat inactivated Horse serum (Life Technologies, 26050088) and 1% Penicillin-Streptomycin (Life Technologies, 15140122), 5 ng/mL human IL-2 (R&D systems, 202-II/CF), 0.2 mM inositol (Sigma, PHR1351 lot LRAC4118), 0.1 mM β-mercaptoethanol (Life Technologies, 31350010), and 0.02 mM folic acid (Sigma, F8758).
NK-92 cells were starved overnight in starvation medium (Opti-MEM (ThermoFisher, 11058-021), 10% charcoal stripped FBS (ThermoFisher 12676-029), and 1% Penicillin (100U/ml)-Streptomycin (100 μg/ml) (ThermoFisher, ref 15140122)), then plated in a 96-well tissue culture plate (20K cells/well) prior to pre-incubation with test compounds (Final Concentration [nM] 1000 to 0.05) for 30 minutes at 37° C. Cells were stimulated with IL-12 (Final Concentration l0 ng/ml) for 30 minutes at 37° C., and terminated by addition of lysis buffer (MSD K150PAD-2). pSTAT4 (Tyr693) was detected using the Mesa Scale Discovery platform (MSD K150PAD-2), according to manufacturer's instruction. Briefly, cell lysates were added to pre-blocked plates and incubated for 1 hour at room temperature. Plates were washed and incubated with detection antibody for 1 hour at room temperature. Plates were washed and Read Buffer was added prior to measurement on the MSD (1300 MSD Quickplex SQ 120).

In another experiment the test system is IL-6/pSTAT3. Put plainly: IL-6 induced pSTAT3 assay in TF-1 cells. The experiment is classed as cell-based. To be noted: Homo sapiens, read-out: Cellular selectivity (IL-6/pSTAT3). The method, then: The following example describes the IL-6 induced pSTAT3 assay used to determine the cellular selectivity (IL-6/pSTAT3) of the TYK2 inhibitors.
TF-1 (ATCC®, CRL-2003™) cells were cultured in RPMI 1640 Medium, with GlutaMAX™ Supplement, HEPES for Cell Culture (Life Technologies, 72400047), 10% Fetal Bovine Serum (Life Technologies, 26400044), 2 ng/mL human recombinant GM-CSF (Life Technologies, PHC2013), 1 mM Sodium pyruvate (Life Technologies, 11360039), 1% MEM NEAA (Life Technologies, 11140-035), 1% Penicillin/Streptomycin (Life Technologies, 15140-122).
TF-1 (70×10^6) cells were starved overnight in T01 50 flasks (Opti-MEM™ I Reduced Serum Medium, no phenol red (Life Technologies, 11058-021), 1 mM Na pyruvate (Life Technologies, 11360039), 1% MEM NEAA (Life Technologies, 11140-035), and 1% Penicillin/Streptomycin (Life Technologies, 15140-122)) then seeded into 96-well TPP plates (150 000 cell/well) and incubated with test compounds (Final Concentration [nM] 10000-0.05) for 30 minutes at 37° C. […] Stimulation was terminated by addition of lysis buffer (MSD K150SVD) and pSTAT3 detection was measured with Phospho-STAT3 (Tyr705) Kit MSD K150SVD)) according to manufacturer's instruction. Briefly, cell lysates were added to pre-blocked plates, sealed, and shake for 1 hour at room temperature. Plates were then washed and incubated with detection antibody for 1 hour at room temperature. After washing, Read Buffer was added, and plates were read on MSD instrument (Model 1300 MSD Quickplex SQ 120).

The next experiment has as its system GM-CSF/pSTAT5. Description: GM-CSF induced pSTAT5 assay in CellSensor irf1-bla TF-1 cells. The experiment is classed as cell-based. To be noted: Homo sapiens, GM-CSF 1 ng/mL, read-out: Cellular selectivity (GM-CSF induced pSTAT5). The protocol: The CellSensor irf1-bla TF-1 cell line (LifeTechnologies, K1657) was cultured in RPMI 1640 Medium (Invitrogen 72400-047), 10% Fetal Bovine Serum (Invitrogen, 26400044), 1 mM Sodium pyruvate (Life Technologies, 11360039), 1% MEM NEAA (Life Technologies, 11140-035), 2 ng/ml of human recombinant GM-CSF (Fisher, PHC2015), 1% Penicillin/Streptomycin (Life Technologies, 15140-122) and 5 μg/ml of Blasticidin (ThermoFisher, A1113903).
The cell line was seeded in a T75 flask at 13×10^6 cells/50 mL in starvation medium (Opti-MEM™ I Reduced Serum Medium, no phenol red (Life Technologies, 11058-021), 1 mM Na pyruvate (Life Technologies, 11360039), 1% MEM NEAA (Life Technologies, 11140-035), and 1% Penicillin/Streptomycin (Life Technologies, 15140-122)) for 16 hours at 37° C. under 5% CO2 the day before the assay.
For the assay, CellSensor irf1-bla TF-1 cells were seeded at 30 000 cells/32 μL (starvation medium)/well in a 384-well plate.
Compounds were added on the cells in 4 μL (starvation medium)/well at 10× the final concentration. They were incubated for 30 minutes at 37° C.
Human recombinant carrier-free GM-CSF (ThermoFisher, ref PHC2015) was added to the wells in 4 μL (starvation medium)/well at 10×. The final concentration was 1 ng/mL. Control wells without GM-CSF treatment were added. Plates were incubated for 5 hours at 37° C.
6× LiveBlazer-FRET substrate (Invitrogen, K1085) was added to the wells at 8 μL/well. The substrate was prepared shortly before use by mixing 6 μL of solution A and 60 μL of solution B to 934 μL of solution C. Plates were incubated for 2.5 hours at room temperature in the dark. The plates were read on an Envision (Perkin Elmer) with an excitation at a wavelength of 409 nm and two wavelengths for the emission 520 nm and 450 nm. The ratio between the […] emission was used to calculate the IC50s.
The IC50 for the inhibition of pSTAT5 was calculated with the Xlfit software using the 4 Parameter Logistic Model or Sigmoidal Dose-Response Model (model 205).

T1 sequence (P29597 589-875 limits assumed): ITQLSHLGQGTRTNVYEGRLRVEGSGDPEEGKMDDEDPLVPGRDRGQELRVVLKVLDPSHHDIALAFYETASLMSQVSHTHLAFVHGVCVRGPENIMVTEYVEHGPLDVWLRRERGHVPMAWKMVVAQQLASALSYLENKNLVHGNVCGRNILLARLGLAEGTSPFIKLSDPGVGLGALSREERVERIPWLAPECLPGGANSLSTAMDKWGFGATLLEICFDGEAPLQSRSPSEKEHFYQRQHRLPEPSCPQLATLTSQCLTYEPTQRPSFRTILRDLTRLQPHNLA

As for `CC(c1ccc(Nc2cc(Nc3ncccc3S(C)(=O)=O)ncn2)nc1)N1CC2(CC(F)C2)C1` (stereo in doubt) [Compound 10, N^4-(5-((1R)-1-(6-fluoro-2-azaspiro[3.3]heptan-2-yl)ethyl) 87yridine-2-yl)-N^6-(3-(methylsulfonyl)87yridine-2-yl)pyrimidine-4,6-diamine], the “Ligand Efficiency” value at TYK2-JH2 is reported as “††† (†††: >0.39)”. Moreover, the results for the IC50 with IL-12/pSTAT4, with IL-6/pSTAT3 and in the experiment on GM-CSF/pSTAT5 were below 0.1 µM, 4 to 10 µM and above 10 µM, respectively.

As for `COc1cnc(Nc2cc(Nc3ccc([C@H](C)N4CC5(COC5)C4)cn3)ncn2)c(S(C)(=O)=O)c1` [Compound 3, (S)—N^4-(5-(1-(2-oxa-6-azaspiro[3.3]heptan-6-yl)ethyl)pyridine-2-yl)-N^6-(5-methoxy-3-(methylsulfonyl)77yridine-2-yl)pyrimidine-4,6-diamine], at TYK2-JH2, the “Ligand Efficiency” value is reported as “†† (††: 0.37-0.39)”. Moreover, the IC50 in the experiment with IL-12/pSTAT4 was below 0.1 µM; in the experiment with IL-6/pSTAT3 it was 4 to 10 µM; with GM-CSF/pSTAT5, above 10 µM.

`CS(=O)(=O)c1cccnc1Nc1cc(Nc2ccc3c(n2)CCC[C@@H]3N2CC3(COC3)C2)ncn1` [Compound 5, I-N^4-(5-(2-oxa-6-azaspiro[3.3]heptan-6-yl)-5,6,7,8-tetrahydroquinolin-2-yl)-N^6-(3-(methylsulfonyl)81yridine-2-yl)pyrimidine-4,6-diamine]: the “Ligand Efficiency” value on TYK2-JH2 is “†† (††: 0.37-0.39)”. Moreover, the IC50 in the experiment with IL-12/pSTAT4 is below 0.1 µM; in the experiment on IL-6/pSTAT3 it was 4 to 10 µM; with GM-CSF/pSTAT5 it was above 10 µM.

In the case of `Cc1nc(Nc2cc(Nc3ncccc3S(C)(=O)=O)ncn2)ccc1NC1(C)COC1` [Compound 6, N^4-(6-methyl-5-((3-methyloxetan-3-yl)amino)82yridine-2-yl)-N^6-(3-(methylsulfonyl)82yridine-2-yl)pyrimidine-4,6-diamine], at TYK2-JH2, the “Ligand Efficiency” value is “††† (†††: >0.39)”. Also, the results for the IC50 in the experiment on IL-12/pSTAT4, with IL-6/pSTAT3 and with GM-CSF/pSTAT5 were below 0.1 µM, 4 to 10 µM and above 10 µM, respectively.

Regarding `C[C@H]1CN(C2CC2)CCN1c1ccc(Nc2cc(Nc3ncccc3S(C)(=O)=O)ncn2)nc1` [Compound 8, (S)—N^4-(5-(4-cyclopropyl-2-methylpiperazin-1-yl)85yridine-2-yl)-N^6-(3-(methylsulfonyl)85yridine-2-yl)pyrimidine-4,6-diamine], the “Ligand Efficiency” value on TYK2-JH2 is reported as “††† (†††: >0.39)”. Moreover, the IC50 was below 0.1 µM in the experiment with IL-12/pSTAT4, 4 to 10 µM in the experiment with IL-6/pSTAT3 and below 4 µM with GM-CSF/pSTAT5.

Regarding `CS(=O)(=O)c1cccnc1Nc1cc(Nc2ccc3c(n2)CC[C@@H]3N2CC3(COC3)C2)ncn1` [Compound 9, N^4-((5S)-5-(2-oxa-6-azaspiro[3.3]heptan-6-yl)-6,7-dihydro-5H-cyclopenta[b]86yridine-2-yl)-N^6-(3-(methylsulfonyl)86yridine-2-yl)pyrimidine-4,6-diamine], the “Ligand Efficiency” value on TYK2-JH2 is reported as “††† (†††: >0.39)”. Also, the IC50 is below 0.1 µM in the experiment on IL-12/pSTAT4, above 10 µM in the experiment on IL-6/pSTAT3 and above 10 µM in the experiment on GM-CSF/pSTAT5.

As to `COc1ccnc(Nc2cc(Nc3ccc(C(C)N4CC5(COC5)C4)cn3)ncn2)c1S(C)(=O)=O` (stereo not shown) [Compound 76, N^4-(5-(1-(2-oxa-6-azaspiro[3.3]heptan-6-yl)ethyl)170yridine-2-yl)-N^6-(4-methoxy-3-(methylsulfonyl)170yridine-2-yl)pyrimidine-4,6-diamine], the “Ligand Efficiency” value on TYK2-JH2 is reported as “† (†: <0.37)”. The IC50 with IL-12/pSTAT4 was 0.1 to 1 µM.

Consider `Cc1cc(Nc2cc(Nc3ncccc3S(C)(=O)=O)ncn2)nnc1C(C)N1CC2(COC2)C1` (stereo not shown) [Compound 77, N^4-(6-(1-(2-oxa-6-azaspiro[3.3]heptan-6-yl)ethyl)-5-methylpyri 172yridi-3-yl)-N^6-(3-(methylsulfonyl)172yridine-2-yl)pyrimidine-4,6-diamine], for which, at TYK2-JH2, the “Ligand Efficiency” value is listed as “†† (††: 0.37-0.39)”. Further, the IC50 in the experiment with IL-12/pSTAT4 is above 1 µM.

Consider `CC(c1ccc(Nc2cc(Nc3ncc(C4COC4)cc3S(C)(=O)=O)ncn2)nc1)N1CC2(COC2)C1` (stereo not shown) [Compound 78, N^4-(5-(1-(2-oxa-6-azaspiro[3.3]heptan-6-yl)ethyl)175yridine-2-yl)-N^6-(3-(methylsulfonyl)-5-(oxetan-3-yl)175yridine-2-yl)pyrimidine-4,6-diamine], for which the “Ligand Efficiency” value at TYK2-JH2 is given as “† (†: <0.37)”. In addition, the IC50 in the experiment with IL-12/pSTAT4 was above 1 µM.

On to `CS(=O)(=O)c1ccccc1Nc1cc(Nc2ccc(C(=O)NC3COC3)cn2)ncn1` [Compound 79, 6-((6-((2-(methylsulfonyl)phenyl)amino)pyrimidin-4-yl)amino)-N-(oxetan-3-yl)nicotinamide], for which the “Ligand Efficiency” value at TYK2-JH2 is listed as “†† (††: 0.37-0.39)”. The IC50 in the experiment on IL-12/pSTAT4 is above 1 µM.

`CS(=O)(=O)c1ccccc1Nc1cc(Nc2ccc(NC3COC3)cn2)ncn1` [Compound 80, N^4-(2-(methylsulfonyl)phenyl)-N^6-(5-(oxetan-3-ylamino)177yridine-2-yl) pyrimidine-4,6-diamine]: the “Ligand Efficiency” value at TYK2-JH2 is “† (†: <0.37)”. In addition, the IC50 with IL-12/pSTAT4 was above 1 µM.
